Assay results taken from patent US12077503B2, “Substituted cyclic amides and their use as herbicides” (FMC CORPORATION, priority 2015, dated 2024).

Columns and labels:
Type in all cases: in vivo
rice (Oryra sativa) = assay: Test B flooded paddy test; settings: Oryza sativa, 360 h, Flood, 250 g ai/ha; visually evaluated after 13 to 15 d; read-out: Plant response rating, Rice (0 to 100 scale where 0 is no effect and 100 is complete control)
Summary of the method: (§1)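 2-leaf plants; pots flooded 3 cm over soil; cpd added to paddy water; depth held; greenhouse 13–15 d; visual rating vs controls, 0 = no effect, 100 = complete control.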

[1] = system: ducksalad (Heteranthera limosa); assay: Test B flooded paddy test; settings: Heteranthera limosa, 360 h, Flood, 250 g ai/ha; visually evaluated after 13 to 15 d; read-out: Plant response rating, Ducksalad (0 to 100 scale where 0 is no effect and 100 is complete control)
Summary of the method: as §1

[2] = system: sedge, umbrella (small-flower umbrella sedge, Cyperus difformis); assay: Test B flooded paddy test; settings: Cyperus difformis, 360 h, Flood, 250 g ai/ha; visually evaluated after 13 to 15 d; read-out: Plant response rating, Sedge, Umbrella (0 to 100 scale where 0 is no effect and 100 is complete control)
Summary of the method: as §1

[3] = system: barnyardgrass (Echinochloa crus-galli); assay: Test B flooded paddy test; settings: Echinochloa crus-galli, 360 h, Flood, 250 g ai/ha; visually evaluated after 13 to 15 d; read-out: Plant response rating, Barnyardgrass (0 to 100 scale where 0 is no effect and 100 is complete control)
Summary of the method: as §1

Kochia (Kochia scoparia) [4] = assay: Test A postemergence; settings: Bassia scoparia, post-emergence, 240 h, Postemergence, read-out: Kochia plant response rating (0 to 100 scale)
Summary of the method: (§2)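 In a loam soil and sand blend, planted seeds got a preemergence directed soil spray, and young plants at the one- to two-leaf stage, 2–10 cm high, got a postemergence application; ~10 d greenhouse hold; injury rated visually, 0 = none, 100 = complete control.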

[5] = system: Galium (catchweed bedstraw, Galium aparine); assay: Test A postemergence; settings: Galium, post-emergence, 240 h, Postemergence, read-out: Galium plant response rating (0 to 100 scale)
Summary of the method: as §2

[6] = system: giant foxtail (Setaria faberii); assay: Test A postemergence; settings: Setaria faberi, post-emergence, 240 h, Postemergence, read-out: Foxtail, Giant plant response rating (0 to 100 scale)
Summary of the method: as §2

[7] = system: ragweed (common ragweed, Ambrosia elatior); assay: Test A postemergence; settings: Ambrosia artemisiifolia, post-emergence, 240 h, Postemergence, read-out: Ragweed plant response rating (0 to 100 scale)
Summary of the method: as §2

[8] = system: blackgrass (Alopecurus myosuroides); assay: Test A postemergence; settings: Alopecurus myosuroides, post-emergence, 240 h, Postemergence, read-out: Blackgrass plant response rating (0 to 100 scale)
Summary of the method: as §2

[9] = system: wheat (Triticum aestivum); assay: Test A postemergence; settings: Triticum aestivum, post-emergence, 240 h, Postemergence, read-out: Wheat plant response rating (0 to 100 scale)
Summary of the method: as §2

[10] = system: ryegrass, Italian (Italian ryegrass, Lolium multiflorum); assay: Test A postemergence; settings: Lolium multiflorum, post-emergence, 240 h, Postemergence, read-out: Ryegrass, Italian plant response rating (0 to 100 scale)
Summary of the method: as §2

[11] = system: pigweed (Amaranthus retroflexus); assay: Test A postemergence; settings: Amaranthus retroflexus, post-emergence, 240 h, Postemergence, read-out: Pigweed plant response rating (0 to 100 scale)
Summary of the method: as §2

corn (Zea mays) = assay: Test A postemergence; settings: Zea mays, post-emergence, 240 h, Postemergence, read-out: Corn plant response rating (0 to 100 scale)
Summary of the method: as §2

[12] = system: barnyardgrass (Echinochloa crus-galli); assay: Test A postemergence; settings: Echinochloa crus-galli, post-emergence, 240 h, Postemergence
Summary of the method: as §2

Kochia (Kochia scoparia) [13] = assay: Test A preemergence; settings: Bassia scoparia, pre-emergence, 240 h, Preemergence
Summary of the method: as §2

[14] = system: giant foxtail (Setaria faberii); assay: Test A preemergence; settings: Setaria faberi, pre-emergence, 240 h, Preemergence
Summary of the method: as §2

[15] = system: ragweed (common ragweed, Ambrosia elatior); assay: Test A preemergence; settings: Ambrosia artemisiifolia, pre-emergence, 240 h, Preemergence
Summary of the method: as §2

[16] = system: ryegrass, Italian (Italian ryegrass, Lolium multiflorum); assay: Test A preemergence; settings: Lolium multiflorum, pre-emergence, 240 h, Preemergence
Summary of the method: as §2

[17] = system: pigweed (Amaranthus retroflexus); assay: Test A preemergence; settings: Amaranthus retroflexus, pre-emergence, 240 h, Preemergence
[18] = system: barnyardgrass (Echinochloa crus-galli); assay: Test A preemergence; settings: Echinochloa crus-galli, pre-emergence, 240 h, Preemergence
Summary of the method: as §2

[19] = 125 g ai/ha, visual rating about 10 d after treatment
[20] = 31 g ai/ha, 0 is no effect, 100 is complete control

CC(C)=Cc1cc([C@H]2CN(C)C(=O)[C@@H]2C(=O)Nc2cccc(F)c2F)ccc1C(F)(F)F [Compound 1337]
20%: pest or weed control at 250 g/ha (rice (Oryra sativa)) | pest or weed control at 250 g/ha [1] | pest or weed control at 250 g/ha [3] | pest or weed control at 125 g/ha (Kochia (Kochia scoparia) [4]; [19]) | pest or weed control at 31 g/ha (Kochia (Kochia scoparia) [4]; [20]) | pest or weed control at 31 g/ha [6, 20] | plant injury at 125 g/ha [9, 19] | pest or weed control at 125 g/ha [10, 19] | pest or weed control at 125 g/ha [11, 19] | pest or weed control at 31 g/ha ([12]; 31 g ai/ha, 0 is no effect, 100 is complete control, read-out: Barnyardgrass plant response rating (0 to 100 scale)) | pest or weed control at 31 g/ha ([16]; 31 g ai/ha, 0 to 100 scale where 0 is no effect and 100 is complete control, read-out: Ryegrass, Italian plant response rating)
0%: pest or weed control at 250 g/ha [2] | pest or weed control at 125 g/ha [5, 19] | pest or weed control at 31 g/ha [5, 20] | pest or weed control at 125 g/ha [7, 19] | pest or weed control at 31 g/ha [7, 20] | pest or weed control at 125 g/ha [8, 19] | pest or weed control at 31 g/ha [8, 20] | plant injury at 31 g/ha [9, 20] | pest or weed control at 31 g/ha [10, 20] | pest or weed control at 31 g/ha [11, 20] | plant injury at 125 g/ha (corn (Zea mays); [19]) | plant injury at 31 g/ha (corn (Zea mays); [20]) | pest or weed control at 31 g/ha (Kochia (Kochia scoparia) [13]; 31 g ai/ha, 0 to 100 scale where 0 is no effect and 100 is complete control, read-out: Kochia plant response rating) | pest or weed control at 125 g/ha (Kochia (Kochia scoparia) [13]; 125 g ai/ha, 0 to 100 scale (0 no effect, 100 complete control), read-out: Plant response rating, Kochia) | pest or weed control at 31 g/ha ([15]; 31 g ai/ha, 0 to 100 scale where 0 is no effect and 100 is complete control, read-out: Ragweed plant response rating) | pest or weed control at 125 g/ha ([15]; 125 g ai/ha, 0 to 100 scale (0 no effect, 100 complete control), read-out: Plant response rating, Ragweed) | pest or weed control at 31 g/ha ([17]; 31 g ai/ha, 0 to 100 scale where 0 is no effect and 100 is complete control, read-out: Pigweed plant response rating) | pest or weed control at 125 g/ha ([17]; 125 g ai/ha, 0 to 100 scale (0 no effect, 100 complete control), read-out: Plant response rating, Pigweed)
40%: pest or weed control at 125 g/ha [6, 19] | pest or weed control at 31 g/ha ([14]; 31 g ai/ha, 0 to 100 scale where 0 is no effect and 100 is complete control, read-out: Foxtail, Giant plant response rating)
50%: pest or weed control at 31 g/ha ([18]; 31 g ai/ha, 0 to 100 scale where 0 is no effect and 100 is complete control, read-out: Barnyardgrass plant response rating)
80%: pest or weed control at 125 g/ha ([14]; 125 g ai/ha, 0 to 100 scale (0 no effect, 100 complete control), read-out: Plant response rating, Foxtail, Giant) | pest or weed control at 125 g/ha ([18]; 125 g ai/ha, 0 to 100 scale (0 no effect, 100 complete control), read-out: Plant response rating, Barnyardgrass)
30%: pest or weed control at 125 g/ha ([12]; 125 g ai/ha, visual rating about 10 d after treatment, read-out: Barnyardgrass plant response rating (0 to 100 scale, 0 no effect, 100 complete control))
70%: pest or weed control at 125 g/ha ([16]; 125 g ai/ha, 0 to 100 scale (0 no effect, 100 complete control), read-out: Plant response rating, Ryegrass, Italian)
